In patent US6127339A, “Peptide for binding thereto a low density lipoprotein” (Asahi Kasei Kogyo Kabushiki Kaisha, priority 1995, dated 2000):
No end group written: not given here.

System: LDL
Experiment: Staining of peptide-bonded resin with biotinylated LDL in plasma (ABC method)
Assay type: binding
Design: key: the peptide-bonded resins which were stained are indicated with "+ (plus)"; the peptide-bonded resins which were not stained are indicated with "- (minus)"
Method: With respect to the adsorbent comprising the water-insoluble carrier having bonded thereto the peptide, as a method for evaluating the binding ability (affinity) of the adsorbent for an LDL, there can be mentioned a method in which, after causing an LDL to be adsorbed on the adsorbent, the adsorbent having the LDL adsorbed thereon is subjected to staining (avidin-biotin complex method, that is, ABC method). Specifically, a biotinylated LDL is added to plasma, and the adsorbent is immersed in the plasma for a predetermined period of time. Then, the adsorbent is taken out of the plasma, and washed. Subsequently, the adsorbent is immersed in a horseradish peroxidase-labeled streptoavidin solution, and a solution of 3,3'-diamino benzidine, which is a substrate for the above-mentioned enzyme (horseradish peroxidase), is added thereto, thereby staining the adsorbent. The binding ability of the adsorbent for LDL is evaluated from the degree of the staining. With respect to methods for evaluating a binding ability for LDL, reference can be made to, for example, the following literature: S. M. Hsu, L. Raine, H. Fanger, J. Histchem. Cytochem., 29, 577 (1981); and H. Towbin, T. Staehelin, J. Gordon, Proc. Natl. Acad. Sci. U.S.A., 76, 4350 (1979).
The ability of each of the peptides to bind thereto an LDL was evaluated as follows. To a blood sample obtained from a healthy person was added a 3.8% aqueous solution of sodium citrate to thereby obtain a mixture. The obtained mixture was centrifuged to separate the blood sample into a blood cells component and a plasma component.
On the other hand, each of the above-mentioned polystyrene resins having bonded thereto the above-synthesized peptides was individually taken out from the synthesis reaction system and packed in a column having a filter (manufactured and sold by Bio-Rad laboratories, U.S.A.). Subsequently, the plasma-LDL mixture prepared above was added to the column, and the column was allowed to stand at room temperature for 1 hour. Then, the column was washed with a physiological saline containing 0.1% Tween 20 and sodium phosphate. After the washing, 1 ml of a horseradish peroxidase-labeled streptoavidine (0.2 ug/ml) solution containing 10% Block Ace (manufacturedand sold by Dainippon Pharmaceutical Co., Ltd., Japan) was added to the column, and the column was allowed to stand at room temperature for 30 minutes. Then, 1 ml of a 3,3'-diaminobenzidine tetrahydrochloride ([…]) solution containing 0.005% hydrogen peroxide was added to the column (by the addition of this solution, when a peptide-bonded resin contained in the column has the LDL bonded thereto, the resin is stained to assume brown color).
Results are shown in Table 1, wherein the peptide-bonded resins which were stained are indicated with "+ (plus)" and the peptide-bonded resins which were not stained are indicated with "- (minus)".
The ability of each of the peptides to bind thereto an LDL was evaluated in substantially the same manner as in Example 1.

[1] = Table 1, peptide-bonded TG resin, room temperature 1 hour, peroxidase-streptoavidin/3,3'-diaminobenzidine
[2] = Table 2, peptide-bonded TG resin, same manner as Example 1

For “Comparative Example 1 Sample 1: comparative pentapeptide N1-N5 = R A H I N, bonded to TG polystyrene resin (RAHIN; not fully specified; printed as Arg Ala His Ile Asn) [reference compound]”, the Stain [1] was “-”.

For “Comparative Example 1 Sample 2: comparative pentapeptide N1-N5 = P K S I N, bonded to TG polystyrene resin (PKSIN; not fully specified; printed as Pro Lys Ser Ile Asn) [reference compound]”, the Stain [1] was “-”.

With “Comparative Example 1 Sample 3: comparative pentapeptide N1-N5 = L H R H L, bonded to TG polystyrene resin (LHRHL; not fully specified; printed as Leu His Arg His Leu) [reference compound]” the Stain [1] was “-”.

In the case of “Comparative Example 1 Sample 4: comparative pentapeptide N1-N5 = L T M K M, bonded to TG polystyrene resin (LTMKM; not fully specified; printed as Leu Thr Met Lys Met) [reference compound]”, the Stain [1] is reported as “-”.

“Comparative Example 1 Sample 5: comparative pentapeptide N1-N5 = M L T V R, bonded to TG polystyrene resin (MLTVR; not fully specified; printed as Met Leu Thr Val Arg) [reference compound]” was tested, and the Stain [1] was “-”.

For “Comparative Example 2 Sample 1: comparative pentapeptide N1-N5 = T H R Q R, bonded to TG polystyrene resin (THRQR; not fully specified; printed as Thr His Arg Gln Arg) [reference compound]”, the Stain [2] was “-”.

With “Comparative Example 2 Sample 2: comparative pentapeptide N1-N5 = H Y Y L Q, bonded to TG polystyrene resin (HYYLQ; not fully specified; printed as His Tyr Tyr Leu Gln) [reference compound]” the Stain [2] was “-”.

With “Comparative Example 2 Sample 3: comparative pentapeptide N1-N5 = W H V Q T, bonded to TG polystyrene resin (WHVQT; not fully specified; printed as Trp His Val Gln Thr) [reference compound]” the Stain [2] was “-”.

“Comparative Example 2 Sample 4: comparative pentapeptide N1-N5 = P N A F A, bonded to TG polystyrene resin (PNAFA; not fully specified; printed as Pro Asn Ala Phe Ala) [reference compound]” was tested, and the Stain [2] was “-”.

With “Comparative Example 2 Sample 5: comparative pentapeptide N1-N5 = H W V V H, bonded to TG polystyrene resin (HWVVH; not fully specified; printed as His Trp Val Val His) [reference compound]” the Stain [2] was “-”.

In the case of “Comparative Example 2 Sample 6: comparative pentapeptide N1-N5 = Y I Q V W, bonded to TG polystyrene resin (YIQVW; not fully specified; printed as Tyr Ile Gln Val Trp) [reference compound]”, the Stain [2] is reported as “-”.

With “Comparative Example 2 Sample 7: comparative pentapeptide N1-N5 = F G A I V, bonded to TG polystyrene resin (FGAIV; not fully specified; printed as Phe Gly Ala Ile Val) [reference compound]” the Stain [2] was “-”.

For “Comparative Example 2 Sample 8: comparative pentapeptide N1-N5 = H A S N P, bonded to TG polystyrene resin (HASNP; not fully specified; printed as His Ala Ser Asn Pro) [reference compound]”, the Stain [2] was “-”.

For “Comparative Example 2 Sample 9: comparative pentapeptide N1-N5 = E W S M T, bonded to TG polystyrene resin (EWSMT; not fully specified; printed as Glu Trp Ser Met Thr) [reference compound]”, the Stain [2] was “-”.

“Comparative Example 2 Sample 10: comparative pentapeptide N1-N5 = F I I M E, bonded to TG polystyrene resin (FIIME; not fully specified; printed as Phe Ile Ile Met Glu) [reference compound]” was tested, and the Stain [2] was “-”.

With “Comparative Example 2 Sample 11: comparative pentapeptide N1-N5 = W V D H N, bonded to TG polystyrene resin (WVDHN; not fully specified; printed as Trp Val Asp His Asn) [reference compound]” the Stain [2] was “-”.

For “Comparative Example 2 Sample 12: comparative pentapeptide N1-N5 = E A K H E, bonded to TG polystyrene resin (EAKHE; not fully specified; printed as Glu Ala Lys His Glu) [reference compound]”, the Stain [2] was “-”.

For “Comparative Example 2 Sample 13: comparative pentapeptide N1-N5 = F N F E S, bonded to TG polystyrene resin (FNFES; not fully specified; printed as Phe Asn Phe Glu Ser) [reference compound]”, the Stain [2] was “-”.

In the case of “Comparative Example 2 Sample 14: comparative pentapeptide N1-N5 = V E E M E, bonded to TG polystyrene resin (VEEME; not fully specified) [reference compound]”, the Stain [2] is reported as “-”.

For “Example 1 Sample 1: pentapeptide N1-N5 = R F Y Y M, bonded to TG polystyrene resin (RFYYM; not fully specified; printed as Arg Phe Tyr Tyr Met)”, the Stain [1] was “+”.

In the case of “Example 1 Sample 2: pentapeptide N1-N5 = F K I W W, bonded to TG polystyrene resin (FKIWW; not fully specified; printed as Phe Lys Ile Trp Trp)”, the Stain [1] is reported as “+”.

In the case of “Example 1 Sample 3: pentapeptide N1-N5 = W Q R H F, bonded to TG polystyrene resin (WQRHF; not fully specified; printed as Trp Gln Arg His Phe)”, the Stain [1] is reported as “+”.

“Example 1 Sample 4: pentapeptide N1-N5 = I F Y K W, bonded to TG polystyrene resin (IFYKW; not fully specified; printed as Ile Phe Tyr Lys Trp)” was tested, and the Stain [1] was “+”.

For “Example 1 Sample 5: pentapeptide N1-N5 = W A L Y R, bonded to TG polystyrene resin (WALYR; not fully specified; printed as Trp Ala Leu Tyr Arg)”, the Stain [1] was “+”.

In the case of “Example 2 Sample 1: pentapeptide N1-N5 = W T A R R, bonded to TG polystyrene resin (WTARR; not fully specified; printed as Trp Thr Ala Arg Arg)”, the Stain [2] is reported as “+”.

For “Example 2 Sample 2: pentapeptide N1-N5 = F A Y R R, bonded to TG polystyrene resin (FAYRR; not fully specified; printed as Phe Ala Tyr Arg Arg)”, the Stain [2] was “+”.

“Example 2 Sample 3: pentapeptide N1-N5 = R W I L Q, bonded to TG polystyrene resin (RWILQ; not fully specified; printed as Arg Trp Ile Leu Gln)” was tested, and the Stain [2] was “+”.

With “Example 2 Sample 4: pentapeptide N1-N5 = R F W L F, bonded to TG polystyrene resin (RFWLF; not fully specified; printed as Arg Phe Trp Leu Phe)” the Stain [2] was “+”.

For “Example 2 Sample 5: pentapeptide N1-N5 = R Y A F W, bonded to TG polystyrene resin (RYAFW; not fully specified; printed as Arg Tyr Ala Phe Trp)”, the Stain [2] was “+”.
